The source of these data is patent US6696461B2, “Tricyclic imidazopyridines” (Altana Pharma AG, priority 2000, dated 2004).

Each structure is given as a SMILES string.

One data set has as its system pentagastrin-stimulated acid secretion of the perfused rat stomach. The experiment in a line: Secretion-inhibiting action on the perfused rat stomach (pentagastrin-stimulated acid secretion, i.v. administration in vivo). Conditions: anesthetized CD rat, dose 3 μmol/kg i.v. An excerpt:
Testing of the Secretion-inhibiting Action on the Perfused Rat Stomach
In Table A which follows, the influence of the compounds according to the invention on the pentagastrin-stimulated acid secretion of the perfused rat stomach after intravenous administration in vivo is shown.
The abdomen of anesthetized rats (CD rat, female, 200-250 g; 1.5 g/kg i.m. urethane) was opened after tracheotomy by a median upper abdominal incision and a PVC catheter was fixed transorally in the esophagus and another via the pylorus such that the ends of the tube just projected into the gastric lumen. The catheter leading from the pylorus led outward into the right abdominal wall through a side opening.
After thorough rinsing (about 50-100 ml), warm (37° C.) physiological NaCl solution was continuously passed through the stomach (0.5 ml/min, pH 6.8-6.9; Braun-Unita 1). The pH (pH meter 632, glass electrode EA 147; φ=5 mm, Metrohm) and, by titration with a freshly prepared 0.01N NaOH solution to pH 7 (Dosimat 665 Metrohm), the secreted HCl were determined in the effluent in each case collected at an interval of 15 minutes.
The gastric secretion was stimulated by continuous infusion of […] (=1.65 ml/h) of i.v. pentagastrin (left femoral vein) about 30 min after the end of the operation (i.e. after determination of 2 preliminary fractions). […]
With `COCc1cn2c(C)c(C)nc2c2c1[C@H](OC)[C@H](O)[C@@H](c1ccccc1)N2` [Example 17, (7S,8R,9R)-8-Hydroxy-7-methoxy-6-methoxymethyl-2,3-dimethyl-9-phenyl-7,8,9,10-tetrahydroimidazo[1,2-h][1,7]naphthyridine], the “Inhibition of acid secretion” value came to 100%.

Test system in a further data set: not given
Experiment: not given
Details: not given
Take `COCc1cn2c(C)c(C)nc2c2c1[C@H](O)[C@H](O)[C@@H](c1ccccc1)N2` [Example 15, (7S,8R,9R)-7,8-Dihydroxy-6-methoxymethyl-2,3-dimethyl-9-phenyl-7,8,9,10-tetrahydroimidazo[1,2-h][1,7]naphthyridine]: the melting point is 182 to 183 °C (dec.). `COCc1cn2c(C)c(C)nc2c2c1[C@H](OC)[C@H](O)[C@@H](c1ccccc1)N2` [Example 17, (7S,8R,9R)-8-Hydroxy-7-methoxy-6-methoxymethyl-2,3-dimethyl-9-phenyl-7,8,9,10-tetrahydroimidazo[1,2-h][1,7]naphthyridine]: the melting point was 126 to 129 °C (dec.). In turn, `COCCO[C@@H]1c2c(COC)cn3c(C)c(C)nc3c2N[C@H](c2ccccc2)[C@H]1O` [Example 19, (7R,8R,9R)-8-Hydroxy-7-(2-methoxyethoxy)-6-methoxymethyl-2,3-dimethyl-9-phenyl-7,8,9,10-tetrahydroimidazo[1,2-h][1,7]naphthyridine] came in with a melting point of 158 to 160 °C.

As to `COCCO[C@H]1c2c(COC)cn3c(C)c(C)nc3c2N[C@H](c2ccccc2)[C@H]1O` [Example 20, (7S,8R,9R)-8-Hydroxy-7-(2-methoxyethoxy)-6-methoxymethyl-2,3-dimethyl-9-phenyl-7,8,9,10-tetrahydroimidazo[1,2-h][1,7]naphthyridine], the melting point is 158 to 160 °C (dec.). The same measure, in the same setting: the figure for `CCO[C@@H]1c2c(COC)cn3c(C)c(C)nc3c2N[C@H](c2ccccc2)[C@H]1O` [Example 21, (7R,8R,9R)-8-Hydroxy-7-ethoxy-6-methoxymethyl-2,3-dimethyl-9-phenyl-7,8,9,10-tetrahydroimidazo[1,2-h][1,7]naphthyridine] is 184 to 186 °C (dec.). Still for that read-out and setting: the figure for `CCO[C@H]1c2c(COC)cn3c(C)c(C)nc3c2N[C@H](c2ccccc2)[C@H]1O` [Example 22, (7S,8R,9R)-8-Hydroxy-7-ethoxy-6-methoxymethyl-2,3-dimethyl-9-phenyl-7,8,9,10-tetrahydroimidazo[1,2-h][1,7]naphthyridine] is 163 to 164 °C (dec.).

A word on the melting point: it is the temperature of the solid-liquid transition.
